Source: patent EP4635945A1, “CRYSTAL FORM OF PROXIMOD, PREPARATION METHOD THEREFOR, AND USE THEREOF” (Jiankuan (Suzhou) Biotechnology Co., Ltd, priority 2022, dated 2024)

Tests used:
Type in all cases: physicochemical
[1] = Solid-state stability of crystal forms on storage (XRPD, purity); settings: for Maximum single impurity after storage / Crystal form after storage / Main purity after storage: 30 days, exposed
Protocol: The crystal forms of the samples before and after storage were tested by XRPD.

[2] = Dynamic solubility in biorelevant media and buffers at 37 °C (HPLC, XRPD of solids)
Protocol: After 1 hour/2 hours/4 hours/24 hours, the saturated solutions were obtained by filtration. The actual concentrations of the samples in the saturated solutions were determined by high-performance liquid chromatography (HPLC) (the filtered solutions were diluted as needed), and the crystal forms of the solids before and after the experiment were characterized by XRPD to check whether phase changes occurred.

[3] = Equilibrium solubility in organic solvents at room temperature (HPLC, XRPD of solids); settings: 24 hours of equilibrium, hydrochloride
Protocol: After 24 hours of equilibrium, the saturated solutions were obtained by filtration. The contents of the samples in the saturated solutions were determined by high-performance liquid chromatography (HPLC) (the filtered solutions were diluted as needed), and the crystal forms of the solids before and after the experiment were characterized by XRPD to check whether phase changes occurred.

[4] = Mechanical stability: grinding in agate mortar, XRPD; settings: 50 mg ground with an agate mortar for 5 minutes; hydrochloride
Description: The samples before and after ground were detected by XRPD.

[5] = Fluidity: angle of repose, bulk and tap density, Hausner ratio; settings: hydrochloride
Protocol: This experiment was performed by using a tap density tester according to the fixed-volume method. The specific operations are as follows: The weighed powder, with a volume of 50 mL, was loaded into a graduated cylinder, and the graduated cylinder was secured onto a support. The graduated cylinder was set to be vibrated at 55 ± 5 vibrations per minute for 6-8 minutes. The volume change of the powder was measured in a measuring cup. The ratio of the weight of the powder to the volume (50 mL) before tapping is the bulk density of the powder, and the ratio of the weight of the powder to the volume after tapping is the tapped density of the powder.
The Hausner ratio and the compression degree were converted in the following methods. Hausner ratio = tap density/bulk density [formula] Compression degree = (tapdensity−bulkdensity)/tap density [formula]
This experiment was performed by a pouring method, and the angles of repose of the drug substances of the two crystal forms were measured in combination with a residual cone method to analyze their fluidities. The specific operations are as follows: The powder was poured onto the center of a disk with a specific diameter, and when the material on the slope of the powder pile began to flow freely out along the periphery of the disk, the pouring of the powder was stopped. The height (h) of the cone was measured, and the angle of repose was calculated in combination with the diameter (2r) of the disk, that is, tanQ = h/r.

[6] = Adhesiveness: PE bag adhesive rate; settings: flipped at 5 rpm, 10 minutes in each direction; hydrochloride
Protocol: The bags were sealed, flipped at a rotational speed of 5 rpm for 10 minutes, and continued to be flipped in a different flipping direction at a fixed rotational speed for 10 minutes. The materials were poured out of the bags, and the materials remaining in the bags were accurately weighed to calculate the adhesive rate.
The adhesive rate was calculated according to the following formula: Adhesive rate = (initialmaterialweight-remainingmaterialweight)/contact surface area. [formula]

[7] = Compressibility: tableting, hardness and tensile strength; settings: die with a diameter of 6 mm
Protocol: In this experiment, a die with a diameter of 6 mm was used. The drug substance and the drug substance + excipient were tableted under the same pressure, respectively. After the elasticity of the prepared tablets was restored, the radial crushing force F, diameter D, and thickness L of the tablets were measured. The tensile strength of the tablets was calculated according to the following formula: Ts = 2F/IIDL.

[8] = Microscopic morphology and particle size; settings: microscopy
Description: In the examples of the present application, the instrument used for the X-ray powder diffraction test is the D2 Phaser produced by Bruker. The instrument used for the differential scanning calorimetry test is the differential scanning calorimeter DSC 250 produced by TA Instruments. The instrument used for the thermogravimetric analysis is the thermogravimetric analyzer TGA 55 produced by TA Instruments. The instrument used for the FT-IR test is the Fourier infrared spectrometer ID1-summit produced by Thermo. The instrument used for the dynamic vapor sorption test is the DVS Intrinsic produced by Surface Measurement Systems (SMS). The instrument used for the microscopy is the microscope NJF-120A produced by Suzhou Nanguang Electronic Technology Co., Ltd.

[9] = FaSSIF (pH of 8.0), 1 hour, hydrochloride
[10] = FaSSIF (pH of 8.0), 2 hours, hydrochloride
[11] = pH = 4.0 acetic acid-sodium acetate buffer, 1 hour, hydrochloride
[12] = pH = 4.0 acetic acid-sodium acetate buffer, 2 hours, hydrochloride
[13] = pH = 4.0 acetic acid-sodium acetate buffer, 4 hours, hydrochloride
[14] = pH = 4.0 acetic acid-sodium acetate buffer, 24 hours, hydrochloride
[15] = pH = 6.8 phosphate buffer, 4 hours
[16] = pH = 6.8 phosphate buffer, 24 hours

## CCCc1nc(-c2ccc(-c3ccc(CCC(N)(CO)CO)cc3)cc2)co1.Cl [Crystal form B, 2-amino-2-{2-(4'-(2-propyloxazol-4-yl)-[1,1'-biphenyl]-4-yl)ethyl}-1,3-propanediol hydrochloride]
[1]; At 40 °C/75% RH
  Maximum single impurity after storage: Maximum single impurity: 0.04 A%
[1]; At 40 °C/75% RH, hydrochloride
  Crystal form after storage: Crystal form B
  Main purity after storage: Main purity: 99.80 A%
[1]; At 60 °C
  Maximum single impurity after storage: Maximum single impurity: 0.04 A%
[1]; At 60 °C, hydrochloride
  Crystal form after storage: Crystal form B
  Main purity after storage: Main purity: 99.79 A%
[1]; At 92.5%RH
  Maximum single impurity after storage: Maximum single impurity: 0.04 A%
[1]; At 92.5%RH, hydrochloride
  Crystal form after storage: Crystal form B
  Main purity after storage: Main purity: 99.83 A%
[1]; Before storage
  Maximum single impurity before storage: Maximum single impurity: 0.04 A%
[1]; Before storage, hydrochloride
  Main purity before storage: Main purity: 99.78 A%
[1]; In light, hydrochloride
  Crystal form after storage: Crystal form B
  Main purity after storage: Main purity: 99.19 A%
  Maximum single impurity after storage: Maximum single impurity: 0.21 A%
[1]; at 60 °C, 92.5% RH, and 45 °C/75% RH
  Time the crystal form remains stable: at least 30 days
[2]; [9]
  Crystal form of the solid: Free alkali
  Solubility: 70 µg/mL
[2]; [10]
  Crystal form of the solid: Free alkali
  Solubility: 200 µg/mL
[2]; FaSSIF (pH of 8.0), 4 hours
  Crystal form of the solid: Free alkali
[2]; FaSSIF (pH of 8.0), 4 hours, hydrochloride
  Solubility: 410 µg/mL
[2]; FaSSIF (pH of 8.0), 24 hours
  Crystal form of the solid: Free alkali
[2]; FaSSIF (pH of 8.0), 24 hours, hydrochloride
  Solubility: 100 µg/mL
[2]; FeSSIF (pH of 5.0), 1 hour, hydrochloride
  Solubility: 2580 µg/mL
[2]; FeSSIF (pH of 5.0), 2 hours, hydrochloride
  Solubility: 2300 µg/mL
[2]; FeSSIF (pH of 5.0), 4 hours, hydrochloride
  Solubility: 2560 µg/mL
[2]; FeSSIF (pH of 5.0), 24 hours
  Crystal form of the solid: no crystal form change
[2]; FeSSIF (pH of 5.0), 24 hours, hydrochloride
  Solubility: 3460 µg/mL
[2]; SGF (pH of 1.0), 1 hour, hydrochloride
  Solubility: 310 µg/mL
[2]; SGF (pH of 1.0), 2 hours, hydrochloride
  Solubility: 270 µg/mL
[2]; SGF (pH of 1.0), 4 hours, hydrochloride
  Solubility: 290 µg/mL
[2]; SGF (pH of 1.0), 24 hours, hydrochloride
  Solubility: 310 µg/mL
[2]; Water, 1 hour, hydrochloride
  Crystal form of the solid: B + F
  Solubility: 1910 µg/mL
[2]; Water, 2 hours, hydrochloride
  Crystal form of the solid: B + F
  Solubility: 2430 µg/mL
[2]; Water, 4 hours, hydrochloride
  Crystal form of the solid: B + F
  Solubility: 2240 µg/mL
[2]; Water, 24 hours, hydrochloride
  Crystal form of the solid: B + F
  Solubility: 2610 µg/mL
[2]; pH = 1.0 hydrochloric acid aqueous solution, 1 hour, hydrochloride
  Solubility: 270 µg/mL
[2]; pH = 1.0 hydrochloric acid aqueous solution, 2 hours
  Solubility: 280 µg/mL
[2]; pH = 1.0 hydrochloric acid aqueous solution, 4 hours, hydrochloride
  Solubility: 280 µg/mL
[2]; pH = 1.0 hydrochloric acid aqueous solution, 24 hours, hydrochloride
  Solubility: 300 µg/mL
[2]; [11]
  Crystal form of the solid: B + F
  Solubility: 1910 µg/mL
[2]; [12]
  Crystal form of the solid: B + F
  Solubility: 2350 µg/mL
[2]; [13]
  Crystal form of the solid: B + F
  Solubility: 1990 µg/mL
[2]; [14]
  Crystal form of the solid: B + F
  Solubility: 2310 µg/mL
[2]; pH = 6.8 phosphate buffer, 1 hour
  Crystal form of the solid: Free alkali
[2]; pH = 6.8 phosphate buffer, 1 hour, hydrochloride
  Solubility: Not detected
[2]; pH = 6.8 phosphate buffer, 2 hours
  Crystal form of the solid: Free alkali
[2]; [15]
  Crystal form of the solid: Free alkali
  Solubility: Not detected
[2]; [16]
  Crystal form of the solid: Free alkali
  Solubility: Not detected
[2]; phosphate buffer, pH 6.8, aqueous buffer, thermodynamic from solid, pH = 6.8 phosphate buffer, 2 hours
  solubility at 2 h: 0.28 µg/mL
[3]; Acetone
  Solubility: 32 µg/mL
[3]; Ethanol
  Solubility: 7610 µg/mL
[3]; Ethyl acetate
  Solubility: Not detected
[4]
  Crystal form after ground (XRPD): partially crystal transformed into the crystal form A
[5]; (tap density − bulk density)/tap density
  Compression degree: 58.0%
[5]; fixed-volume method, 50 mL
  Bulk density: 0.14 g/mL
[5]; fixed-volume method, after tapping
  Tap density: 0.33 g/mL
[5]; pouring method with residual cone method
  Angle of repose: 64.95 °
[5]; tap density/bulk density
  Hausner ratio: 2.4
[6]
  PE bag adhesive rate: 0.0003 g/cm^2
[7]; Ts = 2F/IIDL, hydrochloride
  Tensile strength Ts: 0.10
[7]; same pressure, hydrochloride
  Hardness: 3 N
[7]; tableting
  Experimental phenomena: Severe punch sticking
[8]
  Maximum particle size: less than 100 µm
[8]; hydrochloride
  Length/short diameter ratio: 1-6
  Microscopic morphology: rod-shaped
